Assay results as given in the kinase profiling compilation of Christmann-Franck et al. (2016).

What was measured:
Test in all cases: KINOMEscan competition binding
Conditions in all cases: compound 10.0 µM
GSK3B (human) = GSK3B (human) (UniProt P49841)
MAPK8 (human) = MAPK8 (human) (UniProt P45983)
TEK (human) = TEK (human) (UniProt Q02763)
MAPK7 (human) = MAPK7 (human) (UniProt Q13164)
TAOK1 (human) = TAOK1 (human) (UniProt Q7L7X3)
EPHA8 (human) = EPHA8 (human) (UniProt P29322)
PRKG2 (human) = PRKG2 (human) (UniProt Q13237)
CDK17 (human) = CDK17 (human) (UniProt Q00537)
PRKCE (human) = PRKCE (human) (UniProt Q02156)
PAK3 (human) = PAK3 (human) (UniProt O75914)
MAP3K7 (human) = MAP3K7 (human) (UniProt O43318)
LYN (human) = LYN (human) (UniProt P07948)
LIMK1 (human) = LIMK1 (human) (UniProt P53667)
FES (human) = FES (human) (UniProt P07332)
NEK2 (human) = NEK2 (human) (UniProt P51955)
STK36 (human) = STK36 (human) (UniProt Q9NRP7)
AKT1 (human) = AKT1 (human) (UniProt P31749)
GAK (human) = GAK (human) (UniProt O14976)
PTK2 (human) = PTK2 (human) (UniProt Q05397)
CSNK2A1 (human) = CSNK2A1 (human) (UniProt P68400)
PRKCH (human) = PRKCH (human) (UniProt P24723)
PKMYT1 (human) = PKMYT1 (human) (UniProt Q99640)
[1] = system: FLT3 (human), P36888 [ITD]
NUAK1 (human) = NUAK1 (human) (UniProt O60285)
MKNK2 (human) = MKNK2 (human) (UniProt Q9HBH9)
CSF1R (human) = CSF1R (human) (UniProt P07333)
PIM2 (human) = PIM2 (human) (UniProt Q9P1W9)
PIM3 (human) = PIM3 (human) (UniProt Q86V86)
LTK (human) = LTK (human) (UniProt P29376)
PIM1 (human) = PIM1 (human) (UniProt P11309)
PAK7 (human) = PAK7 (human) (UniProt Q9P286)
EPHB4 (human) = EPHB4 (human) (UniProt P54760)
NLK (human) = NLK (human) (UniProt Q9UBE8)
RPS6KA5 KD1 (human) = RPS6KA5 KD1 (human) (UniProt O75582)
CAMK1D (human) = CAMK1D (human) (UniProt Q8IU85)
MAPK12 (human) = MAPK12 (human) (UniProt P53778)
EPHB1 (human) = EPHB1 (human) (UniProt P54762)
ULK1 (human) = ULK1 (human) (UniProt O75385)
LCK (human) = LCK (human) (UniProt P06239)
FLT1 (human) = FLT1 (human) (UniProt P17948)
CSNK2A2 (human) = CSNK2A2 (human) (UniProt P19784)

Measured: kinase still bound, per cent of control

TAOK1 (human), sequence (Q7L7X3 whole entry, looked up): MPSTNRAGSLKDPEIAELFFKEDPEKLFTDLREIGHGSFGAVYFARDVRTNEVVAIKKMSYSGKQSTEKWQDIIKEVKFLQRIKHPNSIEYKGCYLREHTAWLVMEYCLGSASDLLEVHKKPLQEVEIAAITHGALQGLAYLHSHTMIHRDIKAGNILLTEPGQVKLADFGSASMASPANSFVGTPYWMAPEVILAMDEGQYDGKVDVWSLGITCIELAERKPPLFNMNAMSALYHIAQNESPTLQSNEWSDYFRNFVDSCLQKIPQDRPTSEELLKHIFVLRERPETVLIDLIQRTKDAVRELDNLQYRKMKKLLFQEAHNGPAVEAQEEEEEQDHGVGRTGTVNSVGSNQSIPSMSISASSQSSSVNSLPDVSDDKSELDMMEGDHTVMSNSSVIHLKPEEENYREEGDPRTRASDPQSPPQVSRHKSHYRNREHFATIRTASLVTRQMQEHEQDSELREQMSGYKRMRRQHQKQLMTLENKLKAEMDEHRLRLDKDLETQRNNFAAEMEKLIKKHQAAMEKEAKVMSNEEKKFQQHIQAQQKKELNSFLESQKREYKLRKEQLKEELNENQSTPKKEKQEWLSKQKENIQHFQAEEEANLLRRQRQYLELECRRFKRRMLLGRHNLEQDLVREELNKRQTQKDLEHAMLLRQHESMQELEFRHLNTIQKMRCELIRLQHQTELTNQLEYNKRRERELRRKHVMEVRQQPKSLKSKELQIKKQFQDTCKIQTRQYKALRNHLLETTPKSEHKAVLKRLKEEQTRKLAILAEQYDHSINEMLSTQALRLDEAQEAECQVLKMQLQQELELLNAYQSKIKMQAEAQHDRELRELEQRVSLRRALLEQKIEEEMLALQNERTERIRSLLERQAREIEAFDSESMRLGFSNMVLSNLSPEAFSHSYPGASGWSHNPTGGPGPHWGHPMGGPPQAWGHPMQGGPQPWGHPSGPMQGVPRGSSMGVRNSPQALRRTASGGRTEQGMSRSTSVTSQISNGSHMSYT
NEK2 (human), sequence (P51955 whole entry, looked up): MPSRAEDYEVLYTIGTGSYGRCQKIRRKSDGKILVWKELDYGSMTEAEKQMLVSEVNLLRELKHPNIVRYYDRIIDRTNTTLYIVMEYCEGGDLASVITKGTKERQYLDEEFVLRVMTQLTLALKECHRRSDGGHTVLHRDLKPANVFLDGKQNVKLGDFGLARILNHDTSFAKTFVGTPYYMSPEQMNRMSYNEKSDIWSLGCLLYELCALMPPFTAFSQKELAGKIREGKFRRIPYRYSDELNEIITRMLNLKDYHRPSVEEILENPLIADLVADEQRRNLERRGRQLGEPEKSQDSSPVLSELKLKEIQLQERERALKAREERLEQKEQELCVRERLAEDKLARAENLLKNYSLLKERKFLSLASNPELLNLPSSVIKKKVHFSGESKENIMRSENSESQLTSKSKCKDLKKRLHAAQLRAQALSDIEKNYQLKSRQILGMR
EPHA8 (human), sequence (P29322 whole entry, looked up): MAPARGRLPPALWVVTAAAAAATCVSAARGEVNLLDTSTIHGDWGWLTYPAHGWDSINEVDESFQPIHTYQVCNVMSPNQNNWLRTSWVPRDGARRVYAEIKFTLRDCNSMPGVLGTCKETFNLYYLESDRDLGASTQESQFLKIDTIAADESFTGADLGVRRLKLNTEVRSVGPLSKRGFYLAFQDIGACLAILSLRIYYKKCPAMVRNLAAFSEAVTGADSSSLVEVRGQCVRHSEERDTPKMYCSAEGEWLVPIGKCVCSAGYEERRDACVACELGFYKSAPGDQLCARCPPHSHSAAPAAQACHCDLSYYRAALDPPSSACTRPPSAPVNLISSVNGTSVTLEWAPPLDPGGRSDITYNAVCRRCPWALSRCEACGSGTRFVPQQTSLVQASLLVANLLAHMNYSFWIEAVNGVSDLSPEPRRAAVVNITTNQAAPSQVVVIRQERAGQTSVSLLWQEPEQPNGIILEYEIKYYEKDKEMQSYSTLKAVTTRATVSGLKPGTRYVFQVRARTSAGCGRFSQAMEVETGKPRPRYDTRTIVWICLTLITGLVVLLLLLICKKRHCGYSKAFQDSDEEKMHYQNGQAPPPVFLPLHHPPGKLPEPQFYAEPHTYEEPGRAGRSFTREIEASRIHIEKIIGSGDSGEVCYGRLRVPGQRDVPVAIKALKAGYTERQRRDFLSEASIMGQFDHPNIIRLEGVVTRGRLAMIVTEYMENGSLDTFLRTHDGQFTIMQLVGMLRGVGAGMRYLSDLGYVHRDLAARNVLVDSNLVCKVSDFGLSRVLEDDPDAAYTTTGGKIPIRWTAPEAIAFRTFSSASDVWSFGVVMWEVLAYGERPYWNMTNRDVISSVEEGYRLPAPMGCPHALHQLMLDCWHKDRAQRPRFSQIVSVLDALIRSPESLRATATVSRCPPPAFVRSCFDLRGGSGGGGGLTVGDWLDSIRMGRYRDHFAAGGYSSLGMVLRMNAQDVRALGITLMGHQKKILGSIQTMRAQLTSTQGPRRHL
PRKG2 (human), sequence (Q13237 whole entry, looked up): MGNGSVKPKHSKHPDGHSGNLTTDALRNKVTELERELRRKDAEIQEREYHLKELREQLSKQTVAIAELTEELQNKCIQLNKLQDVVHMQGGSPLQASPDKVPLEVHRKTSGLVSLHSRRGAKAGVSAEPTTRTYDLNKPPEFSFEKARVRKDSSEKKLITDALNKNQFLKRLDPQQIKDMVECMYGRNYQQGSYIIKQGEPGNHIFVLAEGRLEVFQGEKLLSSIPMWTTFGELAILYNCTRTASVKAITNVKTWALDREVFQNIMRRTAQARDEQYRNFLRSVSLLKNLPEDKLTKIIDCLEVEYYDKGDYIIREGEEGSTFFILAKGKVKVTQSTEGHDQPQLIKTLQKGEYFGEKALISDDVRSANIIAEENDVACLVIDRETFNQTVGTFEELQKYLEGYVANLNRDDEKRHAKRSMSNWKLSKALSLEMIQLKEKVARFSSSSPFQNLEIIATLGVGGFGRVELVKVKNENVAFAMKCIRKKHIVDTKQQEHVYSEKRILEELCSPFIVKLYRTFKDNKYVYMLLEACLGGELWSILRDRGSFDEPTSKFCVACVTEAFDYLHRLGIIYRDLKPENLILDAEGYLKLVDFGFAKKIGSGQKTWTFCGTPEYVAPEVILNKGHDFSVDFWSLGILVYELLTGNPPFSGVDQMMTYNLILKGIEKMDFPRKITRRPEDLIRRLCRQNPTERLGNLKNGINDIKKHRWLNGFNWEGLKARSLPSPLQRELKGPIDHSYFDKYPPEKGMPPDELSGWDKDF
PRKCE (human), sequence (Q02156 whole entry, looked up): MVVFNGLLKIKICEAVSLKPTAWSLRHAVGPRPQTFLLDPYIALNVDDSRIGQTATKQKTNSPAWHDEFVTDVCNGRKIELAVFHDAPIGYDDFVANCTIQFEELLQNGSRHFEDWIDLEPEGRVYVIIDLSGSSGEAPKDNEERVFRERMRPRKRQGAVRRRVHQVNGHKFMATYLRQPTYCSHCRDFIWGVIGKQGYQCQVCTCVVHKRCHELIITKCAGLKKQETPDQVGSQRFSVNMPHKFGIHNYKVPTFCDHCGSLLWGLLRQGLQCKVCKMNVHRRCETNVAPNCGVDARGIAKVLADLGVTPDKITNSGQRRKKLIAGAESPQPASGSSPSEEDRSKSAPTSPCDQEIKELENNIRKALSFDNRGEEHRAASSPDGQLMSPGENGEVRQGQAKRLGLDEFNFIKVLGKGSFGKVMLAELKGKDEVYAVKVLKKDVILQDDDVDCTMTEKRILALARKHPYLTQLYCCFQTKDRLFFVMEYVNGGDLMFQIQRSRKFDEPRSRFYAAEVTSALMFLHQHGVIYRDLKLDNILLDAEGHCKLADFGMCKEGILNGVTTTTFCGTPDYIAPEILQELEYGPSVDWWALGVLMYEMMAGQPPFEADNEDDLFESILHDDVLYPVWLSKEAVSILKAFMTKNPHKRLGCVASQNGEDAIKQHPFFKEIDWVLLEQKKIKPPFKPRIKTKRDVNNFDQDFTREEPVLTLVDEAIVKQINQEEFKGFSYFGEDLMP
MKNK2 (human), sequence (Q9HBH9 whole entry, looked up): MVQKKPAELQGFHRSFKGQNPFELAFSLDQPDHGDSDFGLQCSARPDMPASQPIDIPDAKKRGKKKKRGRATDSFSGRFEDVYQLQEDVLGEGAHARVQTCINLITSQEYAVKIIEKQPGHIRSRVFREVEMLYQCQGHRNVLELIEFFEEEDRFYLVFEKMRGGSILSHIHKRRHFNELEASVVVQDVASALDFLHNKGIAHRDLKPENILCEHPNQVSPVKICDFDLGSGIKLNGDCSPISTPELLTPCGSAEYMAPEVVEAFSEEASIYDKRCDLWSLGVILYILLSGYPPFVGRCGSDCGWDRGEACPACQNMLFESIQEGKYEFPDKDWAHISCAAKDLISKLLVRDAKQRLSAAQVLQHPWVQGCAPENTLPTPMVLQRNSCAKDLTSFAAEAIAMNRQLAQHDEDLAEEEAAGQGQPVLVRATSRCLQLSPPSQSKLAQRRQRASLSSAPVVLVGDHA
LYN (human), sequence (P07948 whole entry, looked up): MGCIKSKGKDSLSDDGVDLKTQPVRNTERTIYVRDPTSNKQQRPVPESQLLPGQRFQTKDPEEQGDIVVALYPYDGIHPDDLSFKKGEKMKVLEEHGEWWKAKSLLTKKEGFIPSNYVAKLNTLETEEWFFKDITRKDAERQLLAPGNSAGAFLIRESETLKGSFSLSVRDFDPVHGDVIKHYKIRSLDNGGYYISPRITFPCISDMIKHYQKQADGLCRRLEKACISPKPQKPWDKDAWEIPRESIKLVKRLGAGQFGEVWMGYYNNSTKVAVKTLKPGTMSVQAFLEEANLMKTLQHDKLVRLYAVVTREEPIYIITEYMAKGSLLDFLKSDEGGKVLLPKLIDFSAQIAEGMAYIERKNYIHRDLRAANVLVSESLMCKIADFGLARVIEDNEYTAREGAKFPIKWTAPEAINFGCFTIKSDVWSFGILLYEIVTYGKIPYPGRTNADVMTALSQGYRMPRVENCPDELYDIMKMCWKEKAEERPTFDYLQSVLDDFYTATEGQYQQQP

COc1cc(C(=O)NC2CCN(C)CC2)ccc1Nc1ncc2c(n1)N(C1CCCC1)CCC(=O)N2C(C)C
100%: GSK3B (human) | MAPK8 (human) | TEK (human) | MAPK7 (human) | TAOK1 (human) | EPHA8 (human) | PRKG2 (human) | CDK17 (human) | PRKCE (human) | PAK3 (human) | MAP3K7 (human) | LYN (human) | LIMK1 (human) | FES (human) | NEK2 (human) | STK36 (human) | AKT1 (human) | GAK (human) | PTK2 (human) | CSNK2A1 (human) | PRKCH (human) | PKMYT1 (human) | [1] | NUAK1 (human) | MKNK2 (human) | CSF1R (human) | PIM2 (human) | PIM3 (human) | LTK (human) | PIM1 (human) | PAK7 (human) | EPHB4 (human) | NLK (human) | RPS6KA5 KD1 (human) | CAMK1D (human) | MAPK12 (human) | EPHB1 (human) | ULK1 (human) | LCK (human) | FLT1 (human) | CSNK2A2 (human)
